Where “and” joins values, the source holds several entries; their conditions need not be identical. Equal values may be shown once.
System: 997726-040-R-J2-PDC tumor spheroids, viability
Test: Anticancer human tumor 997726-040-R-J2-PDC patient-derived squamous cell lung carcinoma cell line growth inhibition [PI3K]
Details: spheroids with HUVEC and MSC; for viability, T/C: stronger effect = lower value
Excerpt: Combinatorial screen of targeted agents with the PI3K inhibitors inavolisib, alpelisib, duvelisib, and copanlisib in multi-cell type tumor spheroids
A high-throughput screen of multi-cell type tumor spheroids was designed to identify active combinations of targeted small molecules and PI3K pathway inhibitors. Complex spheroids include a stromal component modeled by human endothelial cells (HUVEC) and fibroblasts modeled by human mesenchymal stem cells (MSCs). The concentration ranges selected for each drug and investigational agent were based upon clinically achievable concentrations if the clinical Cmax of the agent was known.
Compounds. The drugs and investigational agents: inavolisib (NSC800729), alpelisib (NSC765974), duvelisib (NSC772469), copanlisib (NSC816437), ipatasertib (NSC767898), afuresertib (NSC778305), talazoparib (NSC767125), sapanisertib (NSC764658), selumetinib (NSC741078), tovorafenib (DAY101, NSC766906), vemurafenib (NSC761431), ravoxertinib (NSC781343), sotorasib (NSC818433), MRTX1133 (NSC 836407), abemaciclib (NSC 768073), palbociclib (NSC758247), venetoclax (NSC 766270), SY5609 (NSC837396), enzalutamide (NSC755605), and darolutamide (NSC825331), were obtained from the National Cancer Institute (NCI) Developmental Therapeutics Program Chemical Repository. The FDA-approved anticancer drug set is available from the NCI Developmental Therapeutics Program. […] The stock solutions were prepared in dimethyl sulfoxide (DMSO, Sigma-Aldrich, St. Louis, MO, cat. D2650) at 800-fold the tested concentration and stored at -70 degrees C prior to their use. All drugs and investigational agents were tested over a range starting from a high concentration at or near the clinical Cmax and decreasing in half-log increments. If the clinical Cmax for an agent had not been determined, the highest concentration tested was 10 microM.
Cell Culture. All cells were maintained in an incubator at 37 degrees C and 5% CO2 with 95% humidity. The PDC lines were cultured according to standard operating procedures established by the NCI PDMR (https://pdmr.cancer.gov/sops/default.htm). All PDCs were thawed and cultured in Matrigel-coated flasks prepared with a working solution of 1X Ham's F-12 nutrient mix, without supplementation (Invitrogen, Waltham, MA, cat. 11765054), 100 U/mL penicillin-streptomycin (Invitrogen, cat. 15140122), and 2.5% Matrigel (Corning Inc., Corning, NY, cat. 354248) for the first three passages. The 354836-022-R-J1-PDC, 475296-252-R-J1-PDC, and 997726-040-R-J2-PDC lines were cultured in 6A media, which includes advanced DMEM/F-12 (Thermo Fisher Scientific, cat. 12634028), 10 mM HEPES (Thermo Fisher Scientific, cat. 15630080), 1X GlutaMAX supplement (Thermo Fisher Scientific, cat. 35050061), 0.1 mg/mL primocin (InvivoGen, San Diego, CA, cat. ant-pm-2), 10% defined fetal bovine serum, heat inactivated (HyClone Laboratories Inc., Logan, UT, cat. SH30070.03HI), 50% L-WRN conditioned media (ATCC, cat. CRL-3276), 1.25 mM N-Acetyl-L-cysteine (Sigma-Aldrich, cat. A9165), 10 mM nicotinamide (Sigma-Aldrich, cat. N0636), 1X B-27 supplement (Thermo Fisher Scientific, cat. 17504044), 1X N-2 supplement (Thermo Fisher Scientific, cat. 17502048), and 10 microM Y-27632 dihydrochloride (Tocris Bioscience, Bristol, United Kingdom, cat. 1254). The 624824-186-R-J2-PDC line was cultured in 6C/Colon 1B media, which includes all 6A media components plus 50 ng/mL human EGF recombinant protein (Thermo Fisher Scientific, cat. PHG0311). […]

[1] = compound alone, run of 06/12/2023
[2] = compound alone, run of 06/13/2023
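Also: spheroids exposed to compounds for seven days before readout.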

Compound: CC(=O)c1c(C)c2cnc(Nc3ccc(N4CCNCC4)cn3)nc2n(C2CCCC2)c1=O
- viability, T/C (compound 0.000316 µM): 94.7% [middle of 4 runs]
- viability, T/C (compound 0.001 µM): 92.8% [middle of 4 runs]
- viability, T/C (compound 0.00316 µM): 99.1% [middle of 4 runs]
- viability, T/C (compound 0.01 µM): 91.3% [middle of 4 runs]
- viability, T/C (compound 0.0316 µM): 82.2% [middle of 4 runs]
- viability, T/C (compound 0.1 µM): 62.8% [middle of 4 runs]
- IC50 (curve of compound): > 0.1 µM

Compound: CC(C)NCC(C(=O)N1CCN(c2ncnc3c2C(C)CC3O)CC1)c1ccc(Cl)cc1 (stereo not drawn)
- viability, T/C (compound 0.0316 µM): 88.5% [middle of 4 runs]
- viability, T/C (compound 0.1 µM): 77% [middle of 4 runs]
- viability, T/C (compound 0.316 µM): 51.8% [middle of 4 runs]
- viability, T/C (compound 1 µM): 25.5% [middle of 4 runs]
- viability, T/C (compound 3.16 µM): 13.7% [middle of 4 runs]
- viability, T/C (compound 10 µM): 9.08% [middle of 4 runs]
- IC50 (curve of compound): 336 nM [middle of 4 runs]

Compound: CC(C)n1nc(-c2ccc3oc(N)nc3c2)c2c(N)ncnc21
- viability, T/C (compound 0.000316 µM): 91.5% [middle of 4 runs]
- viability, T/C (compound 0.001 µM): 85% [middle of 4 runs]
- viability, T/C (compound 0.00316 µM): 87.5% [middle of 4 runs]
- viability, T/C (compound 0.01 µM): 68% [middle of 4 runs]
- viability, T/C (compound 0.0316 µM): 50.7% [middle of 4 runs]
- viability, T/C (compound 0.1 µM): 14.7% [middle of 4 runs]
- IC50 (curve of compound): 28.8 nM [middle of 4 runs]

Compound: CC(Nc1ccc2c(c1)OCCn1cc(N3C(=O)OCC3C(F)F)nc1-2)C(N)=O (stereo not drawn)
- viability, T/C (compound 0.00316 µM): 91.6% [middle of 8 runs]
- viability, T/C (compound 0.01 µM): 81.8% [middle of 8 runs]
- viability, T/C (compound 0.0316 µM): 61% [middle of 8 runs]
- viability, T/C (compound 0.1 µM): 44.3% [middle of 8 runs]
- viability, T/C (compound 0.316 µM): 32.9% [middle of 8 runs]
- viability, T/C (compound 1 µM): 28.2% [middle of 8 runs]
- IC50 [1]: 71.5 nM [middle of 8 runs]

Compound: CC(Nc1ncnc2nc[nH]c12)c1cc2cccc(Cl)c2c(=O)n1-c1ccccc1 (stereo not drawn)
- viability, T/C (compound 0.0316 µM): 106% [middle of 8 runs]
- viability, T/C (compound 0.1 µM): 99.4% [middle of 8 runs]
- viability, T/C (compound 0.316 µM): 94.3% [middle of 8 runs]
- viability, T/C (compound 1 µM): 86.6% [middle of 8 runs]
- viability, T/C (compound 3.16 µM): 70.8% [middle of 8 runs]
- viability, T/C (compound 10 µM): 54.7% [middle of 8 runs]
- IC50 [2]: > 10 µM and 9.01 µM

Compound: CCN1CCN(Cc2ccc(Nc3ncc(F)c(-c4cc(F)c5nc(C)n(C(C)C)c5c4)n3)nc2)CC1
- viability, T/C (compound 0.00316 µM): 94% [middle of 4 runs]
- viability, T/C (compound 0.01 µM): 88.4% [middle of 4 runs]
- viability, T/C (compound 0.0316 µM): 74.3% [middle of 4 runs]
- viability, T/C (compound 0.1 µM): 64.8% [middle of 4 runs]
- viability, T/C (compound 0.316 µM): 68.5% [middle of 4 runs]
- IC50 (curve of compound): > 1 µM

Compound: COc1c(OCCCN2CCOCC2)ccc2c3n(c(=NC(=O)c4cnc(N)nc4)nc12)CCN3
- viability, T/C (compound 0.00316 µM): 82.3% [middle of 8 runs]
- viability, T/C (compound 0.01 µM): 58.9% [middle of 8 runs]
- viability, T/C (compound 0.0316 µM): 36.3% [middle of 8 runs]
- viability, T/C (compound 0.1 µM): 22.1% [middle of 8 runs]
- viability, T/C (compound 0.316 µM): 4.98% [middle of 8 runs]
- viability, T/C (compound 1 µM): 1.19% [middle of 8 runs]
- IC50 [2]: 15.9 nM [middle of 8 runs]

Compound: Cc1nc(NC(=O)N2CCCC2C(N)=O)sc1-c1ccnc(C(C)(C)C(F)(F)F)c1 (stereo not drawn)
- viability, T/C (compound 0.0316 µM): 91.9% [middle of 8 runs]
- viability, T/C (compound 0.1 µM): 77% [middle of 8 runs]
- viability, T/C (compound 0.316 µM): 57.5% [middle of 8 runs]
- viability, T/C (compound 1 µM): 42.9% [middle of 8 runs]
- viability, T/C (compound 3.16 µM): 30.8% [middle of 8 runs]
- viability, T/C (compound 10 µM): 16.2% [middle of 8 runs]
- IC50 [1]: 599 nM [middle of 8 runs]

Compound: Cn1cnc2c(F)c(Nc3ccc(Br)cc3Cl)c(C(=O)NOCCO)cc21
- viability, T/C (compound 0.00949 µM): 77.2% [middle of 4 runs]
- viability, T/C (compound 0.03 µM): 70.8% [middle of 4 runs]
- viability, T/C (compound 0.0949 µM): 58.2% [middle of 4 runs]
- viability, T/C (compound 0.3 µM): 48.6% [middle of 4 runs]
- viability, T/C (compound 0.949 µM): 48.3% [middle of 4 runs]
- viability, T/C (compound 3 µM): 40.8% [middle of 4 runs]

Compound: Cn1ncnc1[C@H]1c2n[nH]c(=O)c3cc(F)cc(c23)N[C@@H]1c1ccc(F)cc1
- viability, T/C (compound 0.000316 µM): 98.9% [middle of 4 runs]
- viability, T/C (compound 0.001 µM): 99.5% [middle of 4 runs]
- viability, T/C (compound 0.00316 µM): 96.6% [middle of 4 runs]
- viability, T/C (compound 0.01 µM): 98.5% [middle of 4 runs]
- viability, T/C (compound 0.0316 µM): 116% [middle of 4 runs]
- viability, T/C (compound 0.1 µM): 102% [middle of 4 runs]
- IC50 (curve of compound): > 0.1 µM
